Values joined by “and” are separate entries in the source; they are usually repeats but may differ in a detail not shown here. Equal entries are not always repeated. Where a SMILES comes first, the peptide text is derived from it. [ ]: non-standard residue; d: D form. The star is where a group is joined. ξ: configuration not given here. X2 = OCC1OC(OC2C(CO)OC(*)C(O)C2O)C(O)C(O)C1O; X1 = OCC1OC(*)C(O)C(O)C1O; Nva = CCC[C@H](N)C(=O)O; ξS = NC(CO)C(=O)O
Key:
Format in all cases: cell-based
Details in all cases: for Emax: CHO
VPAC1 = target: T1, VPAC1 (Homo sapiens, UniProt P32241); experiment: cAMP accumulation assay in CHO cells stably expressing VPAC1
T1 construct: 3xHA (N)
T1 sequence (P32241 31-457): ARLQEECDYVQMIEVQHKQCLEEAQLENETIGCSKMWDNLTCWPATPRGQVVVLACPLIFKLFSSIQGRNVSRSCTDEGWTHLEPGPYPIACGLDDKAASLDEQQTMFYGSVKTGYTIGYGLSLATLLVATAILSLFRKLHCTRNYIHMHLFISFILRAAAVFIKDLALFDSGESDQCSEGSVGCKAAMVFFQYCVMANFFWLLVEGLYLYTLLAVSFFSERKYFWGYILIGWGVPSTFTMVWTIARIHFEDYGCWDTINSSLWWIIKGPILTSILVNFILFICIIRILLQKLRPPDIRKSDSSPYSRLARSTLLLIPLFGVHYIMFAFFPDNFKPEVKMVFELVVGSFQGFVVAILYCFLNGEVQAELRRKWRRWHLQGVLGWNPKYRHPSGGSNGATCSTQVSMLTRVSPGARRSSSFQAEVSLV

VPAC2 = target: T2, VPAC2 (Homo sapiens, UniProt P41587); experiment: cAMP accumulation assay in CHO cells stably expressing VPAC2
T2 construct: 3xHA (N)
T2 sequence (P41587 24-438): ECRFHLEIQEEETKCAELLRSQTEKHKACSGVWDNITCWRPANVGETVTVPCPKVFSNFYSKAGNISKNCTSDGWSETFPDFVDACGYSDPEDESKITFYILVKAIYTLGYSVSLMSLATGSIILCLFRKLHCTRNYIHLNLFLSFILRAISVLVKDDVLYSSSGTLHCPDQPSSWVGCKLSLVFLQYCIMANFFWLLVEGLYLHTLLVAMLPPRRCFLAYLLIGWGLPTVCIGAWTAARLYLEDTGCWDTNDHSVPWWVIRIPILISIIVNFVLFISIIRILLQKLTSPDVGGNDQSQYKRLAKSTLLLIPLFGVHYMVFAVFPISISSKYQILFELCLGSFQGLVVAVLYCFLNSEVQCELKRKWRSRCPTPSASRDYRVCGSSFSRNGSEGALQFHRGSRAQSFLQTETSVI

PAC1 = target: T3, PAC1 (Homo sapiens, UniProt P41586); experiment: cAMP accumulation assay in CHO cells stably expressing PAC1
T3 construct: 3xHA (N)
T3 sequence (P41586 21-468): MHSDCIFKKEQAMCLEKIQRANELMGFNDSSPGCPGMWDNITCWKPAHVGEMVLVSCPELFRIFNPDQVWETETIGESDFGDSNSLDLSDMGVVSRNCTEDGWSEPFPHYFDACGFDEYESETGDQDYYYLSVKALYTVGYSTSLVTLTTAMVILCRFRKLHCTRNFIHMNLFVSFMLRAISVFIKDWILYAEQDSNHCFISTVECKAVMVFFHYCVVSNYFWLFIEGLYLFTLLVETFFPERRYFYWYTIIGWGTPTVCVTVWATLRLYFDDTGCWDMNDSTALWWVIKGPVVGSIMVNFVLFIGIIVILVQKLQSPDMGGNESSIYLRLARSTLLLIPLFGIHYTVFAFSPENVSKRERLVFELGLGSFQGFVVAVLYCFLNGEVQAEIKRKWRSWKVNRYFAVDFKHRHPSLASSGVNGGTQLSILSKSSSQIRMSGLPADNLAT

[1] = Table 3, in vitro cAMP stimulation, NC = No Convergence (no activity)

| Compound | Emax (VPAC1) | EC50 (VPAC1; Table 1, cAMP stimulation, CHO cells) [nM] | Emax (VPAC2) [%] | Emax (VPAC2; [1]) [%] | EC50 (VPAC2; Table 1, cAMP stimulation, CHO cells, NC not defined here (Table 3: No Convergence)) [nM] | EC50 (VPAC2; [1]) [nM] | Emax (PAC1) [%] | EC50 (PAC1; Table 3, in vitro cAMP stimulation) [nM] |
| --- | --- | --- | --- | --- | --- | --- | --- | --- |
| CCC[C@H](NC(=O)[C@H](CCC(N)=O)NC(=O)[C@H](CCCCN)NC(=O)[C@H](CCCNC(=N)N)NC(=O)[C@H](Cc1ccc(O)cc1)NC(=O)[C@H](CCCNC(=N)N)NC(=O)[C@H](CO)NC(=O)[C@H](Cc1ccc(O)cc1)NC(=O)[C@H](CO)NC(=O)[C@H](CC(=O)O)NC(=O)[C@@H](NC(=O)[C@H](Cc1ccccc1)NC(=O)[C@@H](NC(=O)CNC(=O)[C@H](CC(=O)O)NC(=O)[C@H](CO)NC(=O)[C@@H](N)Cc1c[nH]cn1)[C@@H](C)CC)[C@@H](C)O)C(=O)N[C@@H](C)C(=O)N[C@H](C(=O)N[C@@H](CCCCN)C(=O)N[C@@H](CCCCN)C(=O)N[C@@H](Cc1ccc(O)cc1)C(=O)N[C@@H](CC(C)C)C(=O)NC(COC1OC(CO)C(O)C(O)C1O)C(=O)NC(COC1OC(CO)C(O)C(O)C1O)C(N)=O)C(C)C (stereo partly shown) [CRA-DV-3024] (H-HSDGIFTDSYSRYRKQ[Nva]AVKKYL[ξS](X1)[ξS](X1)-NH2) | 127% | – | – | 130 | – | – | 152 | – |
| CCC[C@H](NC(=O)[C@H](CCC(N)=O)NC(=O)[C@H](CCCCN)NC(=O)[C@H](CCCNC(=N)N)NC(=O)[C@H](Cc1ccc(O)cc1)NC(=O)[C@H](CCCNC(=N)N)NC(=O)[C@H](CO)NC(=O)[C@H](Cc1ccc(O)cc1)NC(=O)[C@H](CO)NC(=O)[C@H](CC(=O)O)NC(=O)[C@@H](NC(=O)[C@H](Cc1ccccc1)NC(=O)[C@@H](NC(=O)[C@H](C)NC(=O)[C@H](CC(=O)O)NC(=O)[C@H](CO)NC(=O)[C@@H](N)Cc1c[nH]cn1)[C@@H](C)CC)[C@@H](C)O)C(=O)N[C@@H](C)C(=O)N[C@H](C(=O)N[C@@H](CCCCN)C(=O)N[C@@H](CCCCN)C(=O)N[C@@H](Cc1ccc(O)cc1)C(=O)N[C@@H](CC(C)C)C(=O)NC(COC1OC(CO)C(OC2OC(CO)C(O)C(O)C2O)C(O)C1O)C(N)=O)C(C)C (stereo partly shown) [CRA-TG-3026] (H-HSDAIFTDSYSRYRKQ[Nva]AVKKYL[ξS](X2)-NH2) | 95% | – | 190 | 115 | – | – | 181 | – |

The remaining lines, values ahead:

| Emax (VPAC1) | EC50 (VPAC1; Table 1, cAMP stimulation, CHO cells) [nM] | Emax (VPAC2) [%] | Emax (VPAC2; [1]) [%] | EC50 (VPAC2; Table 1, cAMP stimulation, CHO cells, NC not defined here (Table 3: No Convergence)) [nM] | EC50 (VPAC2; [1]) [nM] | Emax (PAC1) [%] | EC50 (PAC1; Table 3, in vitro cAMP stimulation) [nM] | Compound |
| --- | --- | --- | --- | --- | --- | --- | --- | --- |
| 42% and 94% | 5.2 | 111 | 91 | 571 | 571 | 198 | 2.2 | CCC[C@H](NC(=O)[C@H](CCC(N)=O)NC(=O)[C@H](CCCCN)NC(=O)[C@H](CCCNC(=N)N)NC(=O)[C@H](Cc1ccc(O)cc1)NC(=O)[C@H](CCCNC(=N)N)NC(=O)[C@H](CO)NC(=O)[C@H](Cc1ccc(O)cc1)NC(=O)[C@H](CO)NC(=O)[C@H](CC(=O)O)NC(=O)[C@@H](NC(=O)[C@H](Cc1ccccc1)NC(=O)[C@@H](NC(=O)CNC(=O)[C@H](CC(=O)O)NC(=O)[C@H](CO)NC(=O)[C@@H](N)Cc1c[nH]cn1)[C@@H](C)CC)[C@@H](C)O)C(=O)N[C@@H](C)C(=O)N[C@H](C(=O)N[C@@H](CCCCN)C(=O)N[C@@H](CCCCN)C(=O)N[C@@H](Cc1ccc(O)cc1)C(=O)N[C@@H](CC(C)C)C(=O)N[C@@H](CO)C(N)=O)C(C)C [CRA-DV-3022] (H-HSDGIFTDSYSRYRKQ[Nva]AVKKYLS-NH2) |
| 105% | – | – | 90 | – | – | 181 | – | CCC[C@H](NC(=O)[C@H](CCC(N)=O)NC(=O)[C@H](CCCCN)NC(=O)[C@H](CCCNC(=N)N)NC(=O)[C@H](Cc1ccc(O)cc1)NC(=O)[C@H](CCCNC(=N)N)NC(=O)[C@H](CO)NC(=O)[C@H](Cc1ccc(O)cc1)NC(=O)[C@H](CO)NC(=O)[C@H](CC(=O)O)NC(=O)[C@@H](NC(=O)[C@H](Cc1ccccc1)NC(=O)[C@@H](NC(=O)CNC(=O)[C@H](CC(=O)O)NC(=O)[C@H](CO)NC(=O)[C@@H](N)Cc1c[nH]cn1)[C@@H](C)CC)[C@@H](C)O)C(=O)N[C@@H](C)C(=O)N[C@H](C(=O)N[C@@H](CCCCN)C(=O)N[C@@H](CCCCN)C(=O)N[C@@H](Cc1ccc(O)cc1)C(=O)N[C@@H](CC(C)C)C(=O)NC(COC1OC(CO)C(O)C(O)C1O)C(N)=O)C(C)C (stereo partly shown) [CRA-DV-3023] (H-HSDGIFTDSYSRYRKQ[Nva]AVKKYL[ξS](X1)-NH2) |
| 91% | – | 168 | 118 | – | – | 174 | – | CCC[C@H](NC(=O)[C@H](CCC(N)=O)NC(=O)[C@H](CCCCN)NC(=O)[C@H](CCCNC(=N)N)NC(=O)[C@H](Cc1ccc(O)cc1)NC(=O)[C@H](CCCNC(=N)N)NC(=O)[C@H](CO)NC(=O)[C@H](Cc1ccc(O)cc1)NC(=O)[C@H](CO)NC(=O)[C@H](CC(=O)O)NC(=O)[C@@H](NC(=O)[C@H](Cc1ccccc1)NC(=O)[C@@H](NC(=O)CNC(=O)[C@H](CC(=O)O)NC(=O)[C@H](CO)NC(=O)[C@@H](N)Cc1c[nH]cn1)[C@@H](C)CC)[C@@H](C)O)C(=O)N[C@@H](C)C(=O)N[C@H](C(=O)N[C@@H](CCCCN)C(=O)N[C@@H](CCCCN)C(=O)N[C@@H](Cc1ccc(O)cc1)C(=O)N[C@@H](CC(C)C)C(=O)NC(COC1OC(CO)C(OC2OC(CO)C(O)C(O)C2O)C(O)C1O)C(N)=O)C(C)C (stereo partly shown) [CRA-TG-3025] (H-HSDGIFTDSYSRYRKQ[Nva]AVKKYL[ξS](X2)-NH2) |
